Broadly, the IC50 is the point on the concentration scale where inhibition reaches its midpoint.

The assay has as its system HCC1569 cells. The assay is described as follows: Inhibition of tumor cell proliferation (CTG, HCC1569). It is filed as cell-based. Particulars: Homo sapiens, 168 h, 7 days incubation, CTG readout, read-out: IC50 of compounds for inhibition of HCC1569 cell growth. How it is done:
Experimental principle: The compound was incubated with tumor cells for 7 days, and ATP in viable cells was quantified using the CTG kit from Promega to evaluate the effect of the compound on tumor cell proliferation.
Experimental method: The cultured cells were resuspended after being rinsed with PBS (for adherent cells) and digested with 0.25% Trypsin-EDTA, followed by cell counting to determine cell density and viability. 3000 HCC1569 cells/well were diluted with RPMI Medium 1640 containing 10% FBS, added to a 96-well plate (90 μL/well), and cultured in an incubator at 37° C. with 5% CO2 for 24 h. The test compound was diluted to different concentrations in dimethyl sulfoxide (DMSO) and added to a 96-well plate. Thus, the final concentration of the compound in the reaction system started at 25 μM and was subjected to a 4-fold serial dilution, with the final DMSO concentration maintained at 0.25%. The compound and cells were further incubated at 37° C. with 5% CO2 for 7 days. 50 μL/well of CTG was then added to measure the inhibitory effect of the compound on tumor cell growth, and the inhibition rate and half-maximal inhibitory concentration (IC50) were calculated.
The % compound inhibition was calculated and fitted using XLfit software to obtain the IC50 of the compound.
Blank wells and DMSO wells were set up. The blank well contained 100 μL of RPMI Medium 1640 with 10% FBS, where the inhibition rate of the compound on tumor cell growth was considered 100%. The DMSO well contained 0.25% DMSO added to the cell well, where the inhibition rate of the compound on tumor cell growth was considered 0%.
`Cc1nc2c3c(c(N)n(-c4c(C)ccc(O)c4C)c3n1)C(=O)NCc1ccccc1-2` [Compound 3, 2-amino-1-(3-hydroxy-2,6-dimethylphenyl)-11-methyl-4,5-dihydro-1,4,10,12-tetraazabenzo[4,5]cyclooctatetraeno[1,2,3-cd]inden-3(1H)-one]: the IC50 amounted to 0.293 µM.
With `Cc1nc2c3c(c(N)n(-c4c(C)ccc(O)c4C)c3n1)C(=O)NCc1ncccc1-2` [Compound 4, 2-amino-1-(3-hydroxy-2,6-dimethylphenyl)-11-methyl-4,5-dihydro-1,4,6,10,12-pentaazabenzo[4,5]cyclooctatetraeno[1,2,3-cd]inden-3(1H)-one], the IC50 worked out at 0.24 µM.
In the case of `Cc1nc2c3c(c(N)n(-c4c(C)ccc(O)c4C)c3n1)C(=O)NCc1cnccc1-2` [Compound 5, 2-amino-1-(3-hydroxy-2,6-dimethylphenyl)-11-methyl-4,5-dihydro-1,4,7,10,12-pentaazabenzo[4,5]cyclooctatetraeno[1,2,3-cd]inden-3(1H)-one] it was 0.539 µM.
Turning to `Cc1nc2c3c(c(N)n(-c4c(C)ccc(O)c4C)c3n1)C(=O)NCc1nn(C)cc1-2` [Compound 8, 2-amino-1-(3-hydroxy-2,6-dimethylphenyl)-7,10-dimethyl-1,4,5,7-tetrahydro-3H-1,4,6,7,9,11-hexaazacyclopenta[4,5]cyclooctatetraeno[1,2,3-cd]inden-3-one], the IC50 is 0.768 µM.
Turning to `Cc1ccc2c(n1)CNC(=O)c1c(N)n(-c3c(C)ccc(O)c3C)c3nc(C)nc-2c13` [Compound 9, 2-amino-1-(3-hydroxy-2,6-dimethylphenyl)-7,11-dimethyl-4,5-dihydro-1,4,6,10,12-pentaazabenzo[4,5]cyclooctatetraeno[1,2,3-cd]inden-3(1H)-one], the IC50 was found to be 0.21 µM.
Turning to `COc1cccc2c1CNC(=O)c1c(N)n(-c3c(C)ccc(O)c3C)c3nc(C)nc-2c13` [Compound 11, 2-amino-1-(3-hydroxy-2,6-dimethylphenyl)-6-methoxy-11-methyl-4,5-dihydro-1,4,10,12-tetraazabenzo[4,5]cyclooctatetraeno[1,2,3-cd]inden-3(1H)-one], the IC50 stood at 0.0592 µM.
Regarding `Cc1nc2c3c(c(N)n(-c4c(C)ccc(O)c4C)c3n1)C(=O)Nc1c-2cnn1C` [Compound 12, 5-amino-4-(3-hydroxy-2,6-dimethylphenyl)-2,8-dimethyl-7,8-dihydro-1,3,4,7,8,9-hexaazabenzo[cd]cyclopenta[f]azulen-6(4H)-one], the IC50 amounted to 0.0092 µM.
Regarding `Cc1nc2c3c(c(N)n(-c4c(C)ccc(O)c4C)c3n1)C(=O)Nc1nn(C)cc1-2` [Compound 13, 2-amino-1-(3-hydroxy-2,6-dimethylphenyl)-6,9-dimethyl-4,6-dihydro-1,4,5,6,8,10-hexaazabenzo[cd]cyclopenta[f]azulen-3(1H)-one], the IC50 is 0.0273 µM.
As for `Cc1nc2c3c(c(N)n(-c4c(C)ccc(O)c4C)c3n1)C(=O)Nc1nn(CC(F)(F)F)cc1-2` [Compound 14, 2-amino-1-(3-hydroxy-2,6-dimethylphenyl)-9-methyl-6-(2,2,2-trifluoroethyl)-4,6-dihydro-1,4,5,6,8,10-hexaazabenzo[cd]cyclopenta[f]azulen-3(1H)-one], the concentration for half-maximal inhibition (IC50) worked out at 0.254 µM.
Take `Cc1nc2c3c(c(N)n(-c4c(C)ccc(O)c4C)c3n1)C(=O)Nc1c(F)cncc1-2` [Compound 16, 5-amino-8-fluoro-4-(3-hydroxy-2,6-dimethylphenyl)-2-methyl-4,7-dihydro-6H-1,3,4,7,10-pentaazadibenzo[cd,f]azulen-6-one]: the IC50 is 0.264 µM.
On to `Cc1nc2c3c(c(N)n(-c4c(C)ccc(O)c4C)c3n1)C(=O)Nc1ncccc1-2` [Compound 17, 5-amino-4-(3-hydroxy-2,6-dimethylphenyl)-2-methyl-4,7-dihydro-6H-1,3,4,7,8-pentaazadibenzo[cd,f]azulen-6-one], for which the IC50 is 0.0246 µM.
Take `Cc1nc2c3c(c(N)n(-c4c(C)ccc(O)c4C)c3n1)C(=O)Nc1cnccc1-2` [Compound 18, 5-amino-4-(3-hydroxy-2,6-dimethylphenyl)-2-methyl-4,7-dihydro-6H-1,3,4,7,9-pentaazadibenzo[cd,f]azulen-6-one]: the IC50 worked out at 0.011 µM.
`Cc1nc2c3c(c(N)n(-c4c(C)ccc(O)c4C)c3n1)C(=O)Nc1ccncc1-2` [Compound 19, 5-amino-4-(3-hydroxy-2,6-dimethylphenyl)-2-methyl-4,7-dihydro-6H-1,3,4,7,10-pentaazadibenzo[cd,f]azulen-6-one]: the IC50 came out at 0.05 µM.
For the compound `Cc1nc2c3c(c(N)n(-c4c(C)ccc(O)c4C)c3n1)C(=O)Nc1cccnc1-2` [Compound 20, 5-amino-4-(3-hydroxy-2,6-dimethylphenyl)-2-methyl-4,7-dihydro-6H-1,3,4,7,11-pentaazadibenzo[cd,f]azulen-6-one], the IC50 is 0.0255 µM.
As to `COc1nccc2c1CNC(=O)c1c(N)n(-c3c(C)ccc(O)c3C)c3nc(C)nc-2c13` [Compound 23, 2-amino-1-(3-hydroxy-2,6-dimethylphenyl)-6-methoxy-11-methyl-4,5-dihydro-1,4,7,10,12-pentaazabenzo[4,5]cyclooctatetraeno[1,2,3-cd]inden-3(1H)-one], the IC50 worked out at 0.0249 µM.
In the case of `Cc1nc2c3c(c(N)n(-c4c(C)ccc(O)c4C)c3n1)C(=O)NCc1c(C#N)cccc1-2` [Compound 27, 2-amino-1-(3-hydroxy-2,6-dimethylphenyl)-11-methyl-3-oxo-1,3,4,5-tetrahydro-1,4,10,12-tetraazabenzo[4,5]cyclooctatetraeno[1,2,3-cd]indene-6-carbonitrile] it was 0.131 µM.
With `Cc1nc2c3c(c(N)n(-c4c(C)ccc(O)c4C)c3n1)C(=O)NCc1nc(C3CC3)ccc1-2` [Compound 28, 2-amino-7-cyclopropyl-1-(3-hydroxy-2,6-dimethylphenyl)-11-methyl-4,5-dihydro-1,4,6,10,12-pentaazabenzo[4,5]cyclooctatetraeno[1,2,3-cd]inden-3(1H)-one], the IC50 was 0.07 µM.
For `Cc1nc2c3c(c(N)n(-c4c(C)ccc(O)c4C)c3n1)C(=O)NCc1nc(C(F)(F)F)ccc1-2` [Compound 29, 2-amino-1-(3-hydroxy-2,6-dimethylphenyl)-11-methyl-7-(trifluoromethyl)-4,5-dihydro-1,4,6,10,12-pentaazabenzo[4,5]cyclooctatetraeno[1,2,3-cd]inden-3(1H)-one], the IC50 was determined as 0.562 µM.
For the compound `COc1c(F)ccc2c1CNC(=O)c1c(N)n(-c3c(C)ccc(O)c3C)c3nc(C)nc-2c13` [Compound 30, 2-amino-7-fluoro-1-(3-hydroxy-2,6-dimethylphenyl)-6-methoxy-11-methyl-4,5-dihydro-1,4,10,12-tetraazabenzo[4,5]cyclooctatetraeno[1,2,3-cd]inden-3(1H)-one], the IC50 amounted to 0.308 µM.
As to `Cc1nc2c3c(c(N)n(-c4c(C)ccc(O)c4C)c3n1)C(=O)NCc1nc(OC3CC3)ccc1-2` [Compound 31, 2-amino-7-cyclopropoxy-1-(3-hydroxy-2,6-dimethylphenyl)-11-methyl-4,5-dihydro-1,4,6,10,12-pentaazabenzo[4,5]cyclooctatetraeno[1,2,3-cd]inden-3(1H)-one], the IC50 was 0.297 µM.
In the case of `Cc1nc2c3c(c(N)n(-c4c(C)ccc(O)c4C)c3n1)C(=O)NCc1nc(CO)ccc1-2` [Compound 32, 2-amino-1-(3-hydroxy-2,6-dimethylphenyl)-7-(hydroxymethyl)-11-methyl-4,5-dihydro-1,4,6,10,12-pentaazabenzo[4,5]cyclooctatetraeno[1,2,3-cd]inden-3(1H)-one], the IC50 was 0.798 µM.
In the case of `Cc1nc2c3c(c(N)n(-c4c(C)ccc(O)c4C)c3n1)C(=O)Nc1c-2cnn1C1CC1` [Compound 33, 5-amino-8-cyclopropyl-4-(3-hydroxy-2,6-dimethylphenyl)-2-methyl-7,8-dihydro-1,3,4,7,8,9-hexaazabenzo[cd]cyclopenta[f]azulen-6(4H)-one] it was 0.049 µM; in that of `Cc1nc2c3c(c(N)n(-c4c(C)ccc(O)c4C)c3n1)C(=O)Nc1c-2c(C)nn1C` [Compound 34, 2-amino-1-(3-hydroxy-2,6-dimethylphenyl)-5,7,9-trimethyl-4,5-dihydro-1,4,5,6,8,10-hexaazabenzo[cd]cyclopenta[f]azulen-3(1H)-one], 0.0091 µM.
In the case of `CCc1nccc2c1CNC(=O)c1c(N)n(-c3c(C)ccc(O)c3C)c3nc(C)nc-2c13` [Compound 35, 2-amino-6-ethyl-1-(3-hydroxy-2,6-dimethylphenyl)-11-methyl-4,5-dihydro-1,4,7,10,12-pentaazabenzo[4,5]cyclooctatetraeno[1,2,3-cd]inden-3(1H)-one] it was 0.0405 µM; in that of `Cc1nc2c3c(c(N)n(-c4c(C)ccc(O)c4C)c3n1)C(=O)NCc1c-2ccnc1C` [Compound 36, 2-amino-1-(3-hydroxy-2,6-dimethylphenyl)-6,11-dimethyl-4,5-dihydro-1,4,7,10,12-pentaazabenzo[4,5]cyclooctatetraeno[1,2,3-cd]inden-3(1H)-one], 0.0638 µM; in that of `Cc1nc2c3c(c(N)n(-c4c(C)ccc(O)c4C)c3n1)C(=O)Nc1sncc1-2` [Compound 37, 5-amino-4-(3-hydroxy-2,6-dimethylphenyl)-2-methyl-4,7-dihydro-6H-8-thia-1,3,4,7,9-pentaazabenzo[cd]cyclopenta[f]azulen-6-one], 0.0338 µM.
